Structures are written as SMILES.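 Method: 48-hour compound exposure of cells in 96-well plates, five concentrations, linear interpolation of endpoints. GI50 is the concentration that inhibits growth by half.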 Calls of active or inactive are those of the source. Cut-off read from the data, not from the text of the source: active = GI50 up to about 1.1 µM and inactive = higher. Where only a bound is given, the exact number is not on record here.

Among the test systems are SF-539; RPMI-8226; NCI-H23; UACC-62; IGROV-1; KM12; UACC-257; K562; COLO 205; OVCAR-5; Malme-3M; SK-MEL-28; SNB-19; HCC 2998; NCI-H522; OVCAR-3; HOP-92; U-251; DU-145; SK-OV-3.
Experiment in all cases: NCI tumour cell line growth inhibition, 48 h

For the molecule `COc1cc(C2C3=C(COC3=O)Oc3cc4c(cc32)OCO4)cc(OC)c1OC` (stereo not drawn), the GI50 was 0.0218 µM (active) in the test on SF-539; 0.0401 µM (active) with RPMI-8226; 0.0441 µM (active) in the test with NCI-H23; 0.0166 µM (active) with UACC-62; 0.0489 µM (active) in the test on IGROV-1; 0.0112 µM (active) in the test on KM12. For the same molecule, the GI50 with UACC-257 is 0.0673 µM (active); in the test with K562, 0.0108 µM (active); in the test with COLO 205, 0.0333 µM (active); in the test on OVCAR-5 it was 0.274 µM (active); in the test on Malme-3M, 0.0828 µM (active); in the test with SK-MEL-28, 0.00771 µM (active). The GI50 is 0.034 µM (active) in the test on SNB-19; 0.0402 µM (active) with HCC 2998; 0.001 µM (active) in the test on NCI-H522; 0.025 µM (active) in the test on OVCAR-3; 0.0161 µM (active) in the test with HOP-92; 0.0262 µM (active) with U-251. The GI50 is 0.0256 µM (active) with DU-145 and < 0.0144 µM (active) in the test with SK-OV-3.
Regarding `COC(=O)c1cc2c(cc1O)[C@@H](NC(C)=O)CCc1cc(OC)c(OC)c(OC)c1-2`, the GI50 was 0.0294 µM (active) in the test on SF-539; 0.0668 µM (active) in the test with RPMI-8226; 0.0296 µM (active) in the test on NCI-H23; 0.0692 µM (active) in the test on UACC-62; 0.0627 µM (active) in the test on IGROV-1; 0.0283 µM (active) with KM12. The GI50 was 0.0715 µM (active) in the test with UACC-257; 0.0412 µM (active) in the test with K562; 0.029 µM (active) in the test on COLO 205; > 10 µM (inactive) with OVCAR-5; 0.0243 µM (active) in the test with Malme-3M; 0.0731 µM (active) with SK-MEL-28. For the same molecule, the GI50 was 0.101 µM (active) in the test with SNB-19; 0.0578 µM (active) in the test on HCC 2998; 0.0222 µM (active) with NCI-H522; 0.0518 µM (active) in the test with OVCAR-3; 0.0647 µM (active) with HOP-92; 0.0342 µM (active) with U-251. In addition, the values for the GI50 in the test on DU-145 and in the test on SK-OV-3 were 0.064 µM (active) and 0.0951 µM (active), respectively.
In the case of `Nc1cccc(CCN2CCN(CCCc3ccccc3)CC2)c1`, the GI50 with SF-539 is 22.2 µM (inactive); in the test on RPMI-8226 it was 33.2 µM (inactive); in the test on NCI-H23, 50.2 µM (inactive); with UACC-62, 21.8 µM (inactive); in the test on IGROV-1, 37.3 µM (inactive); with KM12, 24.9 µM (inactive). Besides, the GI50 is 24.2 µM (inactive) in the test on UACC-257; 12.9 µM (inactive) in the test on K562; 19.5 µM (inactive) with COLO 205; > 100 µM (inactive) in the test on OVCAR-5; 21 µM (inactive) in the test on Malme-3M; 27.5 µM (inactive) in the test on SK-MEL-28. For the same molecule, the GI50 is > 100 µM (inactive) with SNB-19; 15 µM (inactive) in the test on HCC 2998; 16.5 µM (inactive) in the test with NCI-H522; 19.4 µM (inactive) with OVCAR-3; 4.11 µM (inactive) in the test on HOP-92; 46.2 µM (inactive) in the test on U-251. Also, the GI50 was 55.1 µM (inactive) with DU-145 and > 100 µM (inactive) in the test on SK-OV-3.
For `O=NN1C(c2ccccc2)CC(=NO)CC1c1ccccc1` (stereo not drawn), the GI50 with SF-539 is > 100 µM (inactive); in the test on RPMI-8226 it was 68.1 µM (inactive); in the test on NCI-H23 it was > 100 µM (inactive); in the test on UACC-62, > 100 µM (inactive); in the test with IGROV-1, > 100 µM (inactive); in the test on KM12 it was > 100 µM (inactive). In addition, the GI50 with UACC-257 is > 100 µM (inactive); in the test with K562 it was 43.8 µM (inactive); in the test on COLO 205, > 100 µM (inactive); with Malme-3M it was > 100 µM (inactive); in the test on SK-MEL-28, > 100 µM (inactive); in the test on SNB-19, > 100 µM (inactive). In addition, the GI50 in the test on HCC 2998 was 79.1 µM (inactive); in the test with NCI-H522, > 100 µM (inactive); in the test with OVCAR-3, > 100 µM (inactive); with HOP-92 it was > 100 µM (inactive); in the test with U-251, > 100 µM (inactive); with DU-145, > 100 µM (inactive). In the test with SK-OV-3, the GI50 was > 100 µM (inactive).
As to `CCOC(=O)/C(=C\c1ccc(N(C)C)cc1)S(=O)(=O)C(F)(F)C(F)(F)C(F)(F)C(F)(F)F`, the GI50 in the test on SF-539, in the test on RPMI-8226, in the test with NCI-H23, with UACC-62, in the test on IGROV-1 and in the test on KM12 was > 100 µM (inactive) each time. The GI50 in the test with UACC-257, in the test on K562, with COLO 205, in the test with OVCAR-5, in the test on Malme-3M and with SK-MEL-28 was > 100 µM (inactive) throughout. Besides, the GI50 in the test with SNB-19, in the test on HCC 2998, in the test with NCI-H522, in the test with OVCAR-3, in the test on HOP-92 and in the test with U-251 was > 100 µM (inactive) throughout. Also, the GI50 in the test on DU-145 and in the test on SK-OV-3 was > 100 µM (inactive) in each case.
In the case of `CN1CSC(=S)N(c2c3ccccc3nc3ccc(Br)cc23)C1`, the GI50 with SF-539 was 11.6 µM (inactive); with RPMI-8226, 7.71 µM (inactive); in the test with NCI-H23, 10 µM (inactive); in the test with UACC-62, 14 µM (inactive); in the test on IGROV-1, 10.8 µM (inactive); with KM12, 7.11 µM (inactive). In addition, the GI50 in the test with UACC-257 is 12.1 µM (inactive); in the test on K562, 2.32 µM (inactive); in the test with COLO 205, 6.43 µM (inactive); with OVCAR-5 it was 13.7 µM (inactive); in the test with Malme-3M, 16.7 µM (inactive); in the test on SK-MEL-28, 16.9 µM (inactive). Besides, the GI50 is 12.5 µM (inactive) with SNB-19; 2.79 µM (inactive) in the test on HCC 2998; 4.4 µM (inactive) in the test with NCI-H522; 16.7 µM (inactive) in the test on OVCAR-3; 16.3 µM (inactive) in the test with HOP-92; 7.13 µM (inactive) in the test on U-251. For the same molecule, the GI50 in the test with DU-145 is 8.09 µM (inactive); in the test with SK-OV-3, 12.9 µM (inactive).
For `COc1ccc(/C=C2\CCC(CN(C)C)C2=O)cc1` (stereo not drawn), the GI50 with SF-539 is 7.83 µM (inactive); with RPMI-8226, 0.832 µM (active); in the test with NCI-H23, 7.91 µM (inactive); in the test on UACC-62, 8.91 µM (inactive); in the test with IGROV-1, 8.47 µM (inactive); in the test with KM12, 8.26 µM (inactive). Moreover, the GI50 in the test on UACC-257 was 3.75 µM (inactive); in the test on K562, 1.6 µM (inactive); with COLO 205, 3.42 µM (inactive); in the test with OVCAR-5, 13.6 µM (inactive); in the test on Malme-3M it was 4.92 µM (inactive); in the test with SK-MEL-28 it was 5.75 µM (inactive). For the same molecule, the GI50 with SNB-19 was 10.3 µM (inactive); in the test on HCC 2998, 8.13 µM (inactive); in the test with NCI-H522 it was 1.1 µM (active); in the test on OVCAR-3, 4.12 µM (inactive); in the test on HOP-92, 6.1 µM (inactive); in the test on U-251, 18.3 µM (inactive). Besides, the figures for the GI50 in the test with DU-145 and in the test on SK-OV-3 were 2.94 µM (inactive) and 17.6 µM (inactive), respectively.
For the molecule `COC1=C(OC)C(=O)c2cc(C)c(=O)c(C)cc2C1=O`, the GI50 is 18.2 µM (inactive) in the test with SF-539; 5.69 µM (inactive) in the test with RPMI-8226; 16.9 µM (inactive) with NCI-H23; 13.4 µM (inactive) in the test on UACC-62; 18.6 µM (inactive) in the test on IGROV-1; 17.6 µM (inactive) in the test on KM12. The GI50 is 11.2 µM (inactive) in the test on UACC-257; 3.19 µM (inactive) in the test with K562; 19.1 µM (inactive) with COLO 205; 31.3 µM (inactive) with OVCAR-5; 17.1 µM (inactive) in the test on Malme-3M; 16.5 µM (inactive) with SK-MEL-28. The GI50 in the test with SNB-19 was 18.4 µM (inactive); in the test on HCC 2998 it was 22.4 µM (inactive); with NCI-H522, 14.6 µM (inactive); with OVCAR-3, 10.4 µM (inactive); with HOP-92, 16.4 µM (inactive); in the test on U-251, 17.2 µM (inactive). For the same molecule, the GI50 is 16.9 µM (inactive) with DU-145 and 22 µM (inactive) in the test with SK-OV-3.
For `CCCCCCCCCC1CC(=O)NCC(=O)NC(C(C)C)C(=O)NC(CC(C)C)C(=O)NC(C)C(=O)NC(C(C)C)C(=O)O1` (stereo not drawn), the GI50 in the test with SF-539 was 19.1 µM (inactive); with RPMI-8226, 17.1 µM (inactive); in the test with NCI-H23, 13.6 µM (inactive); in the test with UACC-62 it was 25.1 µM (inactive); in the test with IGROV-1 it was 31.9 µM (inactive); in the test with KM12, 6.79 µM (inactive). Also, the GI50 in the test with UACC-257 was 38.8 µM (inactive); in the test on K562, 16.8 µM (inactive); in the test with COLO 205, 50.4 µM (inactive); in the test with OVCAR-5, 38.4 µM (inactive); in the test on Malme-3M it was 22.6 µM (inactive); with SK-MEL-28, 15.2 µM (inactive). The GI50 with SNB-19 was 18.7 µM (inactive); with HCC 2998, > 42.7 µM (inactive); with NCI-H522, 14 µM (inactive); with OVCAR-3, 9.59 µM (inactive); in the test with HOP-92, 15.5 µM (inactive); in the test with U-251 it was 12.8 µM (inactive). The results for the GI50 with DU-145 and with SK-OV-3 were 21.9 µM (inactive) and 16.6 µM (inactive), respectively.
With `Fc1ccc(F)c(/C=N/C23CC4CC(CC(C4)C2)C3)c1`, the GI50 in the test on SF-539, in the test on RPMI-8226, in the test with NCI-H23, with IGROV-1, in the test with KM12 and in the test on UACC-257 was > 10 µM (inactive) in each case. The GI50 in the test on K562 is 4.44 µM (inactive); in the test on COLO 205, > 10 µM (inactive); in the test with OVCAR-5, > 10 µM (inactive); in the test on Malme-3M it was > 10 µM (inactive); with SK-MEL-28, > 10 µM (inactive); with SNB-19, > 10 µM (inactive). The GI50 in the test on HCC 2998, in the test on NCI-H522, with OVCAR-3, in the test with HOP-92, in the test on U-251 and in the test with DU-145 was > 10 µM (inactive) throughout. Moreover, in the test with SK-OV-3, the GI50 is > 10 µM (inactive).

The values are drawn from ChEMBL document CHEMBL1201862, “PubChem BioAssay data set” (2004).
